Source: PMC4602143, “A combined bioinformatics and functional metagenomics approach to discovering lipolytic biocatalysts” (Frontiers in Microbiology, 2015)
Read-outs that look alike come from different tables or passages of the source.

Tested on: T1, PL-GOS
T1 construct: synthetic gene; N-terminal His6 with TEV site, tag cut by TEV protease; E. coli BL21(DE3) strain TMBL1503, pET-11a
Assay: pNP release, OD405, Lineweaver-Burk
Type: biochemical, metagenome: ocean surface water (Global Ocean Sampling)
Details: 50 mM Tris-HCl pH 7.3, 20°C, 65 nM enzyme
Excerpt: pNP release, OD405, Lineweaver-Burk on PL-GOS

| SMILES | Km (substrate above 20 μM (non-Michaelis-Menten below), read-out: pNP-palmitate) [µM] | Km (read-out: pNP-butyrate) [µM] |
| --- | --- | --- |
| CCCCCCCCCCCCCCCC(=O)Oc1ccc([N+](=O)[O-])cc1 [pNP-palmitate] | 68.1 |  |
| CCCC(=O)Oc1ccc([N+](=O)[O-])cc1 [pNP-butyrate] |  | 66.7 |
